# According to patent US20260216166A1, “COMPOUND FOR TREATMENT OF ERECTILE DYSFUNCTION” (Initiator Pharma A/S, priority 2023, published 2026):
# Entries after “also recorded” stand apart in the source; their conditions may differ. Read-outs that look alike come from different tables or passages of the source.
# How the values were obtained:
# [1] = test system: rat corpus cavernosum strips; assay: Isometric tension of isolated rat corpus cavernosum strips
# Experimental: For functional studies in corpus cavernosum strips, the penis was removed by cutting the crura corpora cavernosa at the point of adhesion to the lower pubic bone, and the corpora cavernosa were then dissected free. The penis was submerged immediately in ice-cold (4° C.) PSS. The tunica albuginea was carefully opened from its proximal extremity of the corpus cavernosum towards the penile shaft and the erectile tissue within the corpus cavernosum was microsurgically dissected free. Change in isometric tension of corpus cavernosum strips (0.5×0.5×3 mm) were investigated in a tissue organ bath system (750TOBS, Danish Myotechnology, Aarhus, Denmark). Silk ligatures were applied at both ends of the strip preparations, which were then suspended between two L-formed metal prongs in thermostatically controlled organ baths (5 ml, 37° C.) containing PSS aerated with a mixture of 5% CO2 in air (pH 7.4). The bath fluid was routinely changed every 20 min and replaced with fresh PSS, also kept at 37° C. During an equilibration period of 60 min, tension was adjusted until a mean stable tension of 1.2 mN was obtained, as described earlier.
# To test the contractility of the preparations, they were exposed to a potassium physiological saline solution (KPSS) of 125 mM and phenylephrine (10^-6 M), after each contraction acetylcholine was administrated to check endothelium-dependent relaxations.
# To investigate the effect of IP2015 on corpus cavernosum strips, the drug (10 9-3×10^-4 M) was administered either in preparations at baseline tension or contracted with phenylephrine (10^-6 M) in the absence or presence of L-NOARG (10 4 M), a NO synthase inhibitor, sildenafil (10^-7 M), a PDE5 inhibitor, a dopamine D1 receptor antagonist, SCH23390, and a dopamine D2 receptor antagonist, clozapine (10^-6 M). The effect of vehicle was also investigated.
# [2] = Phase II single oral dose pharmacokinetics in male patients with ED; format: in vivo; settings: human, plasma, 10 mg single oral dose; for Tmax: male, po, 10 mg
# Experimental: (§1) The study was an exploratory Phase II, randomised, placebo-controlled, double-blind, crossover study, investigating the effects of a single oral dose of IP2015 on erectile function in males with ED. A dose level of 10 mg was selected. Patients were enrolled into two cohorts. Both cohorts participated in two periods (Period 1 and Period 2) and received a single dose of IP2015 and a single dose of placebo.
# The IP2015 at a dose of 10 mg or matched placebo was administered once on the morning of Day 1 (in Period 1 and Period 2) as an oral solution in the fasted state. The dose was taken with 240 ml of water at room temperature. Subjects/patients were fasted overnight prior to dosing until 4 hours postdose. Water was allowed ad libitum except for 1 hour before and 1 hour after dosing.
# The study also evaluated the plasma PK concentrations and parameters including but not limited to; AUC0-t, AUC0-∞, Cmax, tmax and T½ in male patients with ED. Blood samples for the determination of plasma concentrations of IP2015 were collected at predose, and 1, 4, 8 (post-stimulus challenge), and 24 hours postdose in each treatment period. The exploratory endpoint was the possible relationship between plasma PK levels and PD response as measured by RigiScan data.
# Plasma samples for the determination of concentrations of IP2015 were analysed by using a validated liquid chromatography-tandem mass spectrometry method. The RigiScan Plus Monitor was used for efficacy during the stimulus challenge.
# (§2) Safety parameters were listed and summarised using descriptive statistics. Pharmacokinetic parameter estimates were calculated using noncompartmental methods. Pharmacokinetic data were listed for each subject/patient and summarised by descriptive statistics.
# [3] = test system: male subjects with erectile dysfunction (ED); assay: IIEF-15 questionnaire after repeat single oral doses in male subjects with ED; format: in vivo, human
# Text: The international index of erectile function (IIEF-15) questionnaire is a validated, multi-dimensional, self-administered investigation that has been found useful in the clinical assessment of erectile dysfunction and treatment outcomes in clinical trials. A score of 0-5 is awarded to each of the 15 questions that examine the main domains of male sexual function: erectile function, orgasmic function, sexual desire and intercourse satisfaction.
# 130 subjects were divided into 3 groups upon which the study was conducted in parallel. Each subject was dosed on four occasions with either 5 mg IP2015, 10 mg IP2015 or matched placebo. In each group, subjects were randomised evenly to each of the three study treatments and received the same treatment at each visit.
# The study lasted approximately 8 weeks and consisted of the following: • A screening visit (up to 21 days prior to the baseline visit) • A baseline visit (Day −7). • Outpatient visits on Week 1 (Day 1), Week 2, Week 3 and Week 4 • A follow-up visit a minimum of 7 to 10 days after their final dose.
# On Day-7, and at the Week 1 (Day 1), Week 2, Week 3, Week 4 and Follow-up visits, all groups were asked to complete the IIEF-15 questionnaire. Group 2 was asked to complete a Visual Stimulation Assessment using a RigiScan Plus Monitor on Day-7, Week 1 (Day 1) and Week 4. Group 2 was also required to provide blood samples for pharmacokinetic assessment on Week 1 (Day 1) and Week 4. Group 3 was required to provide semen samples on Day-7 and Week 4.
# There were three potential study treatments of 5 mg IP2015, 10 mg IP2015 or matched placebo. In each group, subjects were randomised evenly to each of the three study treatments and received the same treatment on each visit. IP2015 or matched placebo was administered once in the morning of Week 1 (Day 1), Week 2, Week 3, and Week 4 as an oral solution in the fasted state. The dose was taken with 240 ml of water at room temperature. Subjects had fasted 2 hours prior to dosing until 4 hours postdose. Water was allowed ad libitum except for 1 hour before and 1 hour after dosing.
# Efficacy was assessed through the International Index of Erectile Function (IIEF)-15 questionnaire. The change from baseline in responses to questions of the IIEF-15 questionnaire, including questions regarding erectile function, orgasmic function, sexual desire, intercourse satisfaction and overall satisfaction domain scores, was determined at different time points of the study. RigiScan assessments during the stimulus assessment, and sperm count and motility by semen sample collection was used for efficacy evaluation. Safety was assessed through AE reporting, 12-lead ECG, vital signs, physical examinations and clinical laboratory evaluations. Pharmacokinetics was assessed by blood sampling.
# The results are means±SE. The statistical differences were performed with Mixed Model Repeated Measures (MMRM).
# male patients with ED = assay: Phase II single oral dose safety in male patients with ED; format: in vivo, human
# Experimental: as §1
# The study evaluated the efficacy data from RigiScan assessments in male patients with ED and the clinical safety data from AE reporting, 12-lead ECGs, vital signs, physical examinations and clinical laboratory evaluations in male patients with ED.
# as §2
# [4] = overall, crossover 10 mg IP2015 and placebo
# [5] = overall, crossover 10 mg IP2015 and placebo, 12 patients
smiles,measurement,setting,value
"COc1cc2ccc(OC3CC4CCC(C3)N4)cc2oc1=O (stereo not shown) [IP2015, 7-[(8-azabicyclo[3.2.1]octan-3-yl)oxy]-3-methoxy-chromen-2-one]",relaxation of corpus cavernosum strips,"[1]; added at basal tension, increasing concentrations",concentration-dependently induced relaxation; also recorded: induced concentration-dependent relaxations; also recorded: induces relaxations
same,IP2015 relaxation in preparations with and without endothelium,"[1]; corpus cavernosum strips, n=5",observed in preparations with endothelium but not in preparations without endothelium
same,Cmax,[2],15.7 ng/mL
same,AUC(0-t),[2]; read-out: mean AUC0-t,287 ng·h/mL
same,Tmax,[2]; read-out: median tmax,4 h
same,Tmax,[2]; read-out: tmax range,1 to 8.53 h
same,efficacy in treating erectile dysfunction,"[3]; 5 mg individual doses, human subjects, compared to placebo",effective in the treatment of erectile dysfunction; also recorded: effective in treating erectile dysfunction
same,overall response to questions of IIEF-15 versus baseline,"[3]; 5 mg, at follow-up, p=0.0046",significant
same,overall response to questions of IIEF-15 versus placebo,"[3]; 5 mg, at follow-up, p=0.07",tendency
same,IIEF-15 overall score versus baseline,"[3]; 5 mg, p=0.0032",the same was the case
same,"IIEF-15 Q4 (ability to maintain erection), overall score versus baseline","[3]; 5 mg, p=0.056",tendency to difference
same,IIEF-15 overall score versus placebo,"[3]; 5 mg, p=0.10",tendency
same,"IIEF-15 Q4, overall score compared to placebo","[3]; 5 mg, p=0.44",no difference
same,"IIEF-15 Q3, overall score","[3]; 5 mg, versus placebo (p=0.07) and versus baseline (p=0.07)",tendency to difference
same,"IIEF-15 Q3 (ability to penetrate), change from baseline","[3]; 5 mg, week 3, versus placebo (p=0.034) and versus baseline (p=0.046)",significant effect
same,overall IIEF-15 score change,"[3]; low dose of IP2015, clinically significant",2
same,"heart rate, increase from baseline","male patients with ED; 10 mg, 8 hours postdose",14.56 bpm
same,"RR, PR, QRS, QT and QTcF intervals, IP2015 versus placebo","male patients with ED; male patients with ED, 10 mg",no significant treatment-related differences
same,"haematology, serum biochemistry or urinalysis data","male patients with ED; male patients with ED, 10 mg",no significant treatment- or dose-related trends
same,standing and supine pulse rate,"male patients with ED; male patients with ED, 10 mg",apparent treatment-related increase
same,"systolic blood pressure, diastolic blood pressure and oral temperature, IP2015 versus placebo","male patients with ED; male patients with ED, 10 mg",no significant treatment-related differences
same,deaths or SAEs,male patients with ED; [4],No deaths or SAEs were reported
same,severity of TEAEs,male patients with ED; [4],All events were mild in severity
same,number of TEAEs,male patients with ED; [5],19
same,patients experiencing TEAEs,male patients with ED; [5],9 (75.0%)
